Where two headings read alike, the source gives them in different places.
Columns and labels:
Type in all cases: cell-based
[1] = test system: HSC-1 (cutaneous squamous carcinoma cell line); experiment: Cell proliferation (ATPLite) on HSC-1 line; settings: 50% inhibition of cell proliferation, read 72 hours after addition
Procedure: (§1) The lines N1E115 (ATCC, CRL2263), MDA-MB-231 (ATCC, HTB26) and HSC-1 (Health Science Research Resources Bank, JCRB1015) were cultured in DMEM medium (Dulbecco's Modified Eagle Medium) supplemented with 2 mM of L-Glutamine (Sigma, G7513) and 10% foetal calf serum (Hyclone, SH30109.03) or 20% for the HSC-1 cells. The HCC-1937 (ATCC, CRL2336) and A549 (ATCC, CCL185) lines were cultured in RPMI medium (Roswell Park Memorial Institute Medium) supplemented with 10% foetal calf serum and 2 mM of L-Glutamine. Finally, the SCC114 (DSMZ, ACC662) line was cultured in MEM medium (Minimum Essential Medium Eagle) supplemented with 10% foetal calf serum and 2 mM of L-Glutamine. Initially, in 96-well plates (Perkin Elmer, 6005668), the cells were seeded in their respective culture media with 750 cells per well for N1E115; 1000 cells per well for SCC114 and A549; 2000 cells per well for HCC-1937 and HSC-1; 2500 cells per well for MDA-MB-231. Cascade dilution of each compound was performed in dimethylsulfoxide (DMSO) (Sigma, D8418) from 10 mM stock solutions in 100% DMSO. Each of the dilutions was added to the cells 24 hours after seeding. Under these conditions the final solvent concentration was 0.1% DMSO. Reading of cell proliferation was conducted 72 hours after addition of products with the ATPLite kit (Perkin Elmer, 6016947) and following the manufacturer's directions except in the case of the HCC-1937 line for which this reading was carried out 48 hours after treatment. Analysis of proliferation results was performed by comparing with conditions in which solely the vehicle was added to the cells. The dose-response curves obtained were analysed using Prism 4.03 software (GraphPad Software Inc.) to determine the concentration of each compound allowing 50% inhibition of cell proliferation (IC50).
(§2) As examples, the cytotoxic properties of some compounds of the invention evaluated on the lines A549 (lung cancer cell line), MDA-MB-231 line (mammary adenocarcinoma cell line), N1E115 (mouse brain neuroblastoma cell line), HCC-1937 line (primary ductam breast carcinoma cell line), HSC-1 (cutaneous squamous carcinoma cell line) and SCC114 line (oral squamous carcinoma cell line) are reported in Table 1, as compared with griseofulvin used as control product. The concentration values are expressed in micromolar units (μM).

[2] = test system: HCC-1937 line (primary ductam breast carcinoma cell line); experiment: Cell proliferation (ATPLite) on HCC-1937 line; settings: read 48 hours after treatment
Procedure: as §1, §2

[3] = test system: N1E115 (mouse brain neuroblastoma cell line); experiment: Cell proliferation (ATPLite) on N1E115 line; settings: read 72 hours after addition
Procedure: as §1, §2

[4] = test system: A549 (lung cancer cell line); experiment: Cell proliferation (ATPLite) on A549 line; settings: read 72 hours after addition
Procedure: as §1, §2

[5] = test system: SCC114 line (oral squamous carcinoma cell line); experiment: Cell proliferation (ATPLite) on SCC114 line; settings: read 72 hours after addition
Procedure: as §1, §2

[6] = test system: MDA-MB-231 line (mammary adenocarcinoma cell line); experiment: Cell proliferation (ATPLite) on MDA-MB-231 line; settings: read 72 hours after addition
Procedure: as §1, §2

[7] = 50% inhibition of cell proliferation, read-out: IC50 (μM) HCC1937
[8] = 50% inhibition of cell proliferation, read-out: IC50 (μM) N1E-115
[9] = 50% inhibition of cell proliferation
[10] = Homo sapiens, HCC1937, 50% inhibition of cell proliferation
[11] = Mus musculus, N1E-115, 50% inhibition of cell proliferation
[12] = Homo sapiens, A549, 50% inhibition of cell proliferation
[13] = SCC114, 50% inhibition of cell proliferation
[14] = Homo sapiens, MDA-MB-231, 50% inhibition of cell proliferation

| SMILES | IC50 [1] | IC50 [2, 7] | IC50 [3, 8] | IC50 [4, 9] | IC50 [5, 9] | IC50 [6, 9] | IC50 [2, 10] | IC50 [3, 11] | IC50 [4, 12] | IC50 [5, 13] | IC50 [6, 14] |
| --- | --- | --- | --- | --- | --- | --- | --- | --- | --- | --- | --- |
| COc1cc(OC)c2c(c1Cl)O[C@]1(C2=O)C2=C(C[C@H](c3ccccc3)O2)C(=O)C[C@H]1C [compound 3, (2R,2′S,6R)-7′-chloro-4′,6′-dimethoxy-6-methyl-2-phenyl-5,6-dihydro-2H,3′H-2,7′-spirobi[benzofuran]-3′,4(3H)-dione] | 6 µM | > 10 µM | 0.21 µM | 0.25 µM | 0.52 µM | 0.45 µM | – | – | – | – | – |
| COC(=O)C1=C[C@H](c2ccccc2)C2=C(C[C@@H](C)[C@]3(Oc4c(Cl)c(OC)cc(OC)c4C3=O)C2=O)N1 [compound 149, (2S,4′R,7′R)-methyl 7-chloro-4,6-dimethoxy-7′-methyl-3,5′-dioxo-4′-phenyl-4′,5′,7′,8′-tetrahydro-1′H,3H-spiro[benzofuran-2,6′-quinoline]-2′-carboxylate] | 0.72 µM | – | – | – | – | – | > 10 µM | 0.21 µM | 0.24 µM | 0.23 µM | 0.34 µM |
| COc1cc(OC)c2c(c1Cl)O[C@@]1(C=C([S+]([O-])c3ccccc3)C(=O)C[C@H]1C)C2=O (stereo partly drawn) [compound 95] | 0.32 µM | 0.43 µM | 1 µM | 0.25 µM | 0.25 µM | 0.54 µM | – | – | – | – | – |
| COc1cc(OC)c2c(c1Cl)O[C@]1(C2=O)C(S(=O)(=O)Cc2ccccc2)=CC(=O)C[C@H]1C [compound 145, (1′R,6′R)-2′-(benzylsulfonyl)-7-chloro-4,6-dimethoxy-6′-methyl-3H-spiro[benzofuran-2,1′-cyclohex[2]ene]-3,4′-dione] | 1.4 µM | 1.4 µM | 3 µM | 1.5 µM | 0.385 µM | 2 µM | – | – | – | – | – |
| COC(=O)c1cc(-c2ccccc2)c2c(n1)C[C@@H](C)[C@]1(Oc3c(Cl)c(OC)cc(OC)c3C1=O)[C@H]2O [compound 252, (2S,5′S,7′R)-methyl 7-chloro-5′-hydroxy-4,6-dimethoxy-7′-methyl-3-oxo-4′-phenyl-7′,8′-dihydro-3H,5′H-spiro[benzofuran-2,6′-quinoline]-2′-carboxylate] | 0.52 µM | – | – | – | – | – | > 10 µM | 0.2 µM | 0.25 µM | 0.32 µM | 0.38 µM |
| COc1cc(OC)c2c(c1Cl)O[C@]1(C2=O)C(O)c2ccc(C)nc2C[C@H]1C (stereo partly drawn) [compound 249, (2S,7′R)-7-chloro-5′-hydroxy-4,6-dimethoxy-2′,7′-dimethyl-7′,8′-dihydro-3H,5′H-spiro[benzofuran-2,6′-quinolin]-3-one] | 0.88 µM | – | – | – | – | – | > 10 µM | 0.26 µM | 0.55 µM | 0.42 µM | 0.34 µM |
| CCc1ccc2c(n1)C[C@@H](C)[C@]1(Oc3c(Cl)c(OC)cc(OC)c3C1=O)C2O (stereo partly drawn) [compound 250, (2 S,7′R)-7-chloro-2′-ethyl-5′-hydroxy-4,6-dimethoxy-7′-methyl-7′,8′-dihydro-3H,5′H-spiro[benzofuran-2,6′-quinolin]-3-one] | 1.9 µM | – | – | – | – | – | > 10 µM | 1.4 µM | 1.4 µM | 0.54 µM | 0.35 µM |
| COC(=O)c1cc(-c2ccccc2)c2c(n1)C[C@@H](C)[C@]1(Oc3c(Cl)c(OC)cc(OC)c3C1=O)C2=O [compound 152, (2S,7′R)-methyl 7-chloro-4,6-dimethoxy-7′-methyl-3,5′-dioxo-4′-phenyl-7′,8′-dihydro-3H,5′H-spiro[benzofuran-2,6′-quinoline]-2′-carboxylate] | 10 µM | – | – | – | – | – | > 10 µM | 0.62 µM | 0.48 µM | 0.71 µM | 1.6 µM |
| COc1cc(OC)c2c(c1Cl)O[C@]1(C2=O)C2=C(C[C@@H](c3ccccc3)O2)/C(=N/O)C[C@H]1C [compound 217, (2′S,6R,E)-7′-chloro-4-(hydroxyimino)-4′,6′-dimethoxy-6-methyl-2-phenyl-3,4,5,6-tetrahydro-2H,3′H-2,7′-spirobi[benzofuran]-3′-one] | 1.3 µM | > 10 µM | 0.73 µM | 0.36 µM | 0.33 µM | 0.63 µM | – | – | – | – | – |

Source: patent US9416143B2, “Griseofulvin derivatives” (PIERRE FABRE MEDICAMENT, priority 2012, dated 2016)
